We go through 8 compounds from ChEMBL document CHEMBL1201862, “PubChem BioAssay data set” (2004).

Common to all, as to assay: growth of human tumour cells (NCI), 48 h
In test [1] the test system is A549.
For test [2], the system named is HOP-62.
The test system of test [3] is HT-29.
Test [4] deals with KM12.
For test [5], the system named is NCI-H522.
Test [6] concerns OVCAR-3.
For test [7], the system named is OVCAR-4.
Test [8] relates to OVCAR-5.
The subject of test [9] is OVCAR-8.
For test [10], the system named is RXF 393.
The subject of test [11] is SF-268.
The subject of test [12] is SK-MEL-2.
Test [13] has as its system SK-OV-3.
The test system of test [14] is SNB-19.
Test [15] deals with SW-620.
Test [16] deals with U-251.
In test [17] the test system is UACC-257.
Test [18] deals with LOX IMVI.
Test [19] has as its system RPMI-8226.

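Each compound was tested at five concentrations against cells in 96-well plates for 48 hours. The concentration for 50% growth inhibition is given as GI50.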 Active and inactive are the calls of the source. No stated cut-off is given here; in the data, active = GI50 up to about 1.1 µM and inactive = higher.

Consider `Oc1c(Cl)c(Cl)c(O)c(CCNc2nccs2)c1Cl`, for which the GI50 in [1] was 21.6 µM (inactive); in [2], 19.1 µM (inactive); in [3], 17.9 µM (inactive); in [4] it was 6.85 µM (inactive); in test [5] it was 2.02 µM (inactive); in test [6], 9.35 µM (inactive). Besides, the GI50 in [7] is 38.1 µM (inactive); in test [8], 23.2 µM (inactive); in test [9], 16.6 µM (inactive); in test [10], 7.23 µM (inactive); in [11], 9.06 µM (inactive); in test [12], 22.3 µM (inactive). Besides, the GI50 in test [13] was 16.3 µM (inactive); in [14], 17 µM (inactive); in test [15] it was 3.3 µM (inactive); in [16], 11.3 µM (inactive); in test [17], 20 µM (inactive).
Regarding `C=CCNC(=O)/C=C\C(=O)O`, the GI50 in [1], in test [2], in [3], in test [4], in test [18] and in test [5] was > 100 µM (inactive) throughout. The GI50 in test [6], in [7], in test [8], in test [9], in test [10] and in test [11] was > 100 µM (inactive) in each case. Besides, the GI50 in test [12], in [13], in [14], in test [15], in test [16] and in [17] was > 100 µM (inactive) each time.
Turning to `COc1ccc(/C=C2\CCCC(C(NO)c3ccc(OC)cc3)C2=NO)cc1` (centres undefined), the GI50 in [1] was 44.5 µM (inactive); in test [2], 98.9 µM (inactive); in test [3], 72.1 µM (inactive); in test [4], 89.5 µM (inactive); in [5], 27.2 µM (inactive); in [6] it was 47.3 µM (inactive). In addition, the GI50 in [7] is 29.5 µM (inactive); in test [9] it was 40.5 µM (inactive); in test [19], 28.8 µM (inactive); in [10], 26.7 µM (inactive); in test [11] it was 68.2 µM (inactive); in test [12], 85.1 µM (inactive). The GI50 in test [13] is > 100 µM (inactive); in test [14], 61.4 µM (inactive); in test [15] it was 44.3 µM (inactive); in test [16] it was 62.5 µM (inactive); in test [17] it was 38.1 µM (inactive).
For the compound `CC(=O)O[C@H]1C(=O)[C@@]2(C)C(C(OC(=O)c3ccccc3)[C@]3(O)CC(OC(=O)C(O)C(NC(=O)c4ccc(C(F)(F)F)cc4)c4ccccc4)C(C)=C1C3(C)C)[C@]1(OC(C)=O)CO[C@@H]1C[C@@H]2O` (some centres undefined), the GI50 was 0.218 µM (active) in test [1]; 0.0989 µM (active) in test [2]; 0.0565 µM (active) in test [3]; 0.0611 µM (active) in test [4]; 0.156 µM (active) in test [18]; 0.0755 µM (active) in test [5]. Also, the GI50 in test [6] is 0.0757 µM (active); in test [7] it was 8.77 µM (inactive); in test [8], 0.158 µM (active); in test [9] it was 0.161 µM (active); in test [19] it was 0.0628 µM (active); in test [11], 0.157 µM (active). Besides, the GI50 in test [12] was 0.0914 µM (active); in test [13], 0.129 µM (active); in test [14] it was 0.861 µM (active); in test [15] it was 0.0552 µM (active); in test [16], 0.156 µM (active); in test [17], 0.236 µM (active).
`O=S(=O)(NCn1ccc2ccccc21)c1ccccc1`: the GI50 is > 100 µM (inactive) in test [1]; > 100 µM (inactive) in test [2]; 37 µM (inactive) in test [3]; > 60.7 µM (inactive) in [4]; 66.5 µM (inactive) in [18]; > 100 µM (inactive) in test [5]. Moreover, the GI50 in test [6] is > 100 µM (inactive); in test [8] it was > 100 µM (inactive); in test [9], > 76.2 µM (inactive); in test [19], 21.5 µM (inactive); in [10], > 63.8 µM (inactive); in test [11] it was > 57.8 µM (inactive). Further, the GI50 is > 100 µM (inactive) in test [12]; > 100 µM (inactive) in test [13]; > 31.6 µM (inactive) in [14]; 38.4 µM (inactive) in test [15]; > 100 µM (inactive) in test [16]; > 88.7 µM (inactive) in test [17].
With `COc1c(NC(C)=O)cc(C)cc1NC(C)=O`, the GI50 in test [1], in test [2], in test [4], in [18], in test [5] and in [6] was > 100 µM (inactive) in each case. Also, the GI50 in test [7], in test [9], in test [19], in test [10], in test [11] and in test [12] was > 100 µM (inactive) in each case. Further, the GI50 in test [13], in test [15], in test [16] and in test [17] was > 100 µM (inactive) throughout.
As for `O=C1NC2C(=O)N(Cc3ccccc3)C(=O)C2N1` (centres undefined), the GI50 in [1], in test [2], in test [3], in test [4], in test [18] and in test [5] was > 100 µM (inactive) throughout. Further, the GI50 in test [6], in test [7], in test [8], in test [19], in test [10] and in test [11] was > 100 µM (inactive) in each case. Also, the GI50 in test [13], in test [14], in test [15], in [16] and in [17] was > 100 µM (inactive) each time.
`CC1(O)CCn2c(=O)c3cc4ccccc4cc3c(=O)n2C1O` (centres undefined): the GI50 is > 100 µM (inactive) in test [1]; > 100 µM (inactive) in test [2]; > 100 µM (inactive) in test [3]; > 100 µM (inactive) in test [4]; > 100 µM (inactive) in [18]; 22 µM (inactive) in test [5]. Further, the GI50 in test [6], in test [8], in test [9], in test [19], in test [10] and in test [11] was > 100 µM (inactive) each time. Besides, the GI50 in [12], in test [13], in [14], in test [15], in [16] and in test [17] was > 100 µM (inactive) each time.
